Patent US20090175882A1, “METHODS AND COMPOSITIONS FOR TREATING HYPERALGESIA” (IRM LLC, priority 2006, published 2009)
“Also recorded” adds a separate entry of the source.

Legend:
mouse TRPA1 = molecular target: T1, mouse TRPA1 (Mus musculus, UniProt Q8BLA8); experiment: FLIPR calcium-influx assay, block of cinnamaldehyde activation, CHO cells; format: cell-based; conditions: elicited by 50 μM cinnamaldehyde, CHO cells
T1 construct: expressed in transfected cells; host or cells: CHO cells (tetracycline-induced for PatchXpress; mTRPA1-pcDNA5 named for the transient labelling experiment)

rat TRPA1 = rat TRPA1 (Rattus norvegicus, UniProt Q6RI86); experiment: Block of rat TRPA1 (data not shown); format: cell-based
TRPV1 = molecular target: T2, TRPV1 (Rattus norvegicus, UniProt O35433); experiment: ThermoTRP selectivity test; format: cell-based; conditions: at 50 μM (data not shown)
T2 construct: expressed in transfected cells; not restated for the selectivity test

TRPV3 = molecular target: T3, TRPV3 (Mus musculus, UniProt Q8K424); experiment: ThermoTRP selectivity test; format: cell-based; conditions: at 50 μM (data not shown)
T3 construct: expressed in transfected cells; not restated for the selectivity test
T3 sequence (Q8K424 1-791): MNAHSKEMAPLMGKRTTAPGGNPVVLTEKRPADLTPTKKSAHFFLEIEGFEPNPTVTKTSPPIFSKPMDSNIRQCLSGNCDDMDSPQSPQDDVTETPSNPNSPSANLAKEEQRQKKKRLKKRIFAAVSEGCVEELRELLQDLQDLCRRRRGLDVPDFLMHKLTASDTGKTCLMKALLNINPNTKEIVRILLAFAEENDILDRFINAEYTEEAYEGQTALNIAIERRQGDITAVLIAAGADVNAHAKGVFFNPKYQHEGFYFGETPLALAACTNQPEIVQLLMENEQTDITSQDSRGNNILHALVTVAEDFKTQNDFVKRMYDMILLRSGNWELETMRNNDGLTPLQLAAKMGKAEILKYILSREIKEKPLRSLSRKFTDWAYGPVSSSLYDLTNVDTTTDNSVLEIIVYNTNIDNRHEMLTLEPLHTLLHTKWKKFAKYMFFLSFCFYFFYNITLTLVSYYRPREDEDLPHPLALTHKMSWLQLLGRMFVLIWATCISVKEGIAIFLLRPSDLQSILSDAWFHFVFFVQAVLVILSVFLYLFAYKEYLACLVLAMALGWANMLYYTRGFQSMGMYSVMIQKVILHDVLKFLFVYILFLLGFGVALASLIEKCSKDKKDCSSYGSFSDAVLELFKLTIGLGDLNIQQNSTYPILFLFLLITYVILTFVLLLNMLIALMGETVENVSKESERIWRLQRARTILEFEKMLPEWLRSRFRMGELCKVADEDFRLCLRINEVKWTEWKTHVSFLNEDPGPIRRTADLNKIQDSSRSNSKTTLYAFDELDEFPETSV

[1] = test system: cinnamaldehyde-induced nociceptive events; experiment: Acute nociceptive behaviour after hindpaw injection of cinnamaldehyde; format: in vivo, mice; conditions: cinnamaldehyde 16.4 mM coinjected with compound 18 1 mM
[2] = test system: acute heat or pressure to the paw; experiment: Nociceptive responses to acute heat or pressure to the paw; format: in vivo; conditions: data not shown
[3] = test system: CFA-induced mechanical hyperalgesia; experiment: CFA-induced mechanical hyperalgesia (Von Frey threshold); format: in vivo; conditions: injected into hindpaw 24 hours after CFA, mice
[4] = test system: CFA-induced heat hyperalgesia; experiment: CFA-induced heat hyperalgesia; format: in vivo; conditions: mice
[5] = test system: bradykinin (BK)-induced heat hyperalgesia; experiment: Bradykinin-induced heat hyperalgesia; format: in vivo; conditions: mice
[6] = test system: TRPV1, TRPV2, TRPV3, TRPV4, or TRPM8; experiment: Effect on other thermoTRPs (summary statement); format: cell-based
Description: TRPA1 inhibitors that can be employed in the practice of the present invention include compounds that interferes with the expression, modification, regulation or activation of TRPA1, or compounds that down-regulates one or more of the normal biological activities of TRPA1 (e.g., its ion channel). […] Various TRPA1-specific antagonists can be used in the instant invention. Some of these TRPA1-specific inhibitors are identified by the present inventors, as described in the Examples below. These compounds can be obtained commercially or are otherwise described in the art. One such compound is Compound 18, (Z)-4-(4-chlorophynyl)-3-methylbut-3-en-2-oxime. This compound can be obtained commercially from Maybridge (Cornwall, UK). Another example is Compound 40, N,N′-Bis-(2-hydroxybenzyl)-2,5-diamino-2,5-dimethylhexane, which has been described in U.S. Pat. No. 4,129,556. […] Thus, these two compounds can be readily used to treat or alleviate mechanical hyperalgesia as described in more detail below.

TRPA1 [7] = molecular target: T4, TRPA1 (Homo sapiens, UniProt O75762); experiment: TRPA1 block, test not specified; conditions: summary statement
Target sequence in this assay (O75762 whole entry, species assumed): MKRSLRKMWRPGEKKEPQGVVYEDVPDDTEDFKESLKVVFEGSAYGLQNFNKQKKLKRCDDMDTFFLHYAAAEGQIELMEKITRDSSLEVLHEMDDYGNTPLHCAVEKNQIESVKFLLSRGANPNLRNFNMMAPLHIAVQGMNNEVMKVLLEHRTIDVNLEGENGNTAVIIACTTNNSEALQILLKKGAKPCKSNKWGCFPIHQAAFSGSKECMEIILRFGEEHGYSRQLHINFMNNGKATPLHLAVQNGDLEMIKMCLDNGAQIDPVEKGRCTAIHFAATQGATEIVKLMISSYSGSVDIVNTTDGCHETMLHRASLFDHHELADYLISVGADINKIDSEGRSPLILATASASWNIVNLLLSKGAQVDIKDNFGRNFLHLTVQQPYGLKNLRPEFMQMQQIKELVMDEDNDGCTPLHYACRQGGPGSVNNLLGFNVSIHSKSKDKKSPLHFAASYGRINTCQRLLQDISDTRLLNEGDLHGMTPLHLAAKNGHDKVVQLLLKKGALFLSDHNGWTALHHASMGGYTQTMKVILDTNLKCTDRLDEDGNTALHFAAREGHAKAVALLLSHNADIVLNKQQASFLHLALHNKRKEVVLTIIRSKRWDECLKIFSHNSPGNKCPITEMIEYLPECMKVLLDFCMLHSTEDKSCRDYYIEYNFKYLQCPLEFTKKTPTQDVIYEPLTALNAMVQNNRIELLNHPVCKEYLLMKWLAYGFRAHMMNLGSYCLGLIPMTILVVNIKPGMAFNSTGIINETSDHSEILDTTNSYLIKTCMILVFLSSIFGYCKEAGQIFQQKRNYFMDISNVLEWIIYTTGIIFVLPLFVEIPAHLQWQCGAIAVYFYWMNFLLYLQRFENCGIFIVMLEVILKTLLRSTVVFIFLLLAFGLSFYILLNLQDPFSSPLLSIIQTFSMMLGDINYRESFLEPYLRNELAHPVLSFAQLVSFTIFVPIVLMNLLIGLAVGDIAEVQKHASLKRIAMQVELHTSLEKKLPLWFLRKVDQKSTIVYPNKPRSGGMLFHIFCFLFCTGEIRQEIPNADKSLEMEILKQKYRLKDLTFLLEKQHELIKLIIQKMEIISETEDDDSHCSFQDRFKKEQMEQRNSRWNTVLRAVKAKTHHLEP

TRPA1 [8] = molecular target: T4, TRPA1; experiment: FLIPR calcium-influx assay, block of cinnamaldehyde activation, CHO cells; format: cell-based; parameters: expressed in transfected cells; conditions: elicited by 50 μM cinnamaldehyde
Target sequence in this assay (O75762 whole entry): as the sequence (O75762 whole entry, species assumed) above

TRPA1 [9] = molecular target: T4, TRPA1; experiment: Cinnamaldehyde-induced currents in inside-out excised patches of Xenopus oocytes; format: cell-based; parameters: expressed in transfected cells; host or cells: Xenopus oocytes injected with cRNA (pOX vector); conditions: coapplication with cinnamaldehyde, inside-out macropatches
Target sequence in this assay (O75762 whole entry): as the sequence (O75762 whole entry, species assumed) above

T2 sequence (O35433 whole entry): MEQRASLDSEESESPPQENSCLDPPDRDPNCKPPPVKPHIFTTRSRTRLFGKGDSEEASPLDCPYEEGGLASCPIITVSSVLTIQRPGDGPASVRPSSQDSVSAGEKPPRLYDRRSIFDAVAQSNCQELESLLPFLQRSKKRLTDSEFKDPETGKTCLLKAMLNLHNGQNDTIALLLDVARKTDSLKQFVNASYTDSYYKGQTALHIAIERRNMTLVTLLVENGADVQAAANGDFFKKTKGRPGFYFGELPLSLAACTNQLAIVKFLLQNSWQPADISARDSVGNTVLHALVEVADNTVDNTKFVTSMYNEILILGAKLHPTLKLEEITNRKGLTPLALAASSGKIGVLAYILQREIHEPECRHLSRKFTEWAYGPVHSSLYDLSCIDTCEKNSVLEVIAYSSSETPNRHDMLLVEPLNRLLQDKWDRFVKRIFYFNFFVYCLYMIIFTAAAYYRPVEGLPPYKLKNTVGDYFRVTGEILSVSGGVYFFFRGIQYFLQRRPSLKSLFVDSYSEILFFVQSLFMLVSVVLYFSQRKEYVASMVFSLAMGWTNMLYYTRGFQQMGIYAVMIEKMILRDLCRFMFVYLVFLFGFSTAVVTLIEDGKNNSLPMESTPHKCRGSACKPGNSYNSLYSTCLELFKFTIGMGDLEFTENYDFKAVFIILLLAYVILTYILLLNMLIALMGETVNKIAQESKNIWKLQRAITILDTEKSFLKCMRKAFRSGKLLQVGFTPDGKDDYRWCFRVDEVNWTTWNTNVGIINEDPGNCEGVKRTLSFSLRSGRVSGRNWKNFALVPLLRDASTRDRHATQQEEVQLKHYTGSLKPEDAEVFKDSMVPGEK
T1 sequence (Q8BLA8 whole entry): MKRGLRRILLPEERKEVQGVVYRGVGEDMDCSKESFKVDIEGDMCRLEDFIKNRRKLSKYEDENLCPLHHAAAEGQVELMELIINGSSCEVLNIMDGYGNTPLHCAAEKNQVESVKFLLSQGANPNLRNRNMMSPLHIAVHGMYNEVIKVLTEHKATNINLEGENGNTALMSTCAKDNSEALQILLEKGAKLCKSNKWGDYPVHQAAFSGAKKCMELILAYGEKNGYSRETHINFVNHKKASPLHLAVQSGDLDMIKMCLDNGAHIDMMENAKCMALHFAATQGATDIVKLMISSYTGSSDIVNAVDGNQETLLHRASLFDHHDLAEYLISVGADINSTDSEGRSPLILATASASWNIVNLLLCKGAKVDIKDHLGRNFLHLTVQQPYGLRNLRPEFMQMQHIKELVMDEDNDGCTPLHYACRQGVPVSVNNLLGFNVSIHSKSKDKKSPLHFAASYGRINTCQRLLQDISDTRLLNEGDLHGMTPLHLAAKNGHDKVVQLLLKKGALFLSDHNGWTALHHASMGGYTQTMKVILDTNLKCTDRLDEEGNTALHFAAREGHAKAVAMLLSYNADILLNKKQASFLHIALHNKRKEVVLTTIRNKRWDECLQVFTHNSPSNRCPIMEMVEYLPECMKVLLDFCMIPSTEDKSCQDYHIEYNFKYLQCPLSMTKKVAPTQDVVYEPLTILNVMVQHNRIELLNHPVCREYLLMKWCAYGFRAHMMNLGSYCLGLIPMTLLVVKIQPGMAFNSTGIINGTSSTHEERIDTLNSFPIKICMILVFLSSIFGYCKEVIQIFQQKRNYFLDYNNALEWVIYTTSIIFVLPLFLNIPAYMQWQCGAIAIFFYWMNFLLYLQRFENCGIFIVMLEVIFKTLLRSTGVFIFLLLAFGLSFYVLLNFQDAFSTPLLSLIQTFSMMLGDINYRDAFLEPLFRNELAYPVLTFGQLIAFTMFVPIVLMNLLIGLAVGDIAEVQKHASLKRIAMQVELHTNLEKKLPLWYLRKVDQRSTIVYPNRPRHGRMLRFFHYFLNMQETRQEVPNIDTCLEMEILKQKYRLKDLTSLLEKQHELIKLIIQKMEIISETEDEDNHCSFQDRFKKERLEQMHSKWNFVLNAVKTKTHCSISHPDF
Sequence of rat TRPA1 (Q6RI86 whole entry): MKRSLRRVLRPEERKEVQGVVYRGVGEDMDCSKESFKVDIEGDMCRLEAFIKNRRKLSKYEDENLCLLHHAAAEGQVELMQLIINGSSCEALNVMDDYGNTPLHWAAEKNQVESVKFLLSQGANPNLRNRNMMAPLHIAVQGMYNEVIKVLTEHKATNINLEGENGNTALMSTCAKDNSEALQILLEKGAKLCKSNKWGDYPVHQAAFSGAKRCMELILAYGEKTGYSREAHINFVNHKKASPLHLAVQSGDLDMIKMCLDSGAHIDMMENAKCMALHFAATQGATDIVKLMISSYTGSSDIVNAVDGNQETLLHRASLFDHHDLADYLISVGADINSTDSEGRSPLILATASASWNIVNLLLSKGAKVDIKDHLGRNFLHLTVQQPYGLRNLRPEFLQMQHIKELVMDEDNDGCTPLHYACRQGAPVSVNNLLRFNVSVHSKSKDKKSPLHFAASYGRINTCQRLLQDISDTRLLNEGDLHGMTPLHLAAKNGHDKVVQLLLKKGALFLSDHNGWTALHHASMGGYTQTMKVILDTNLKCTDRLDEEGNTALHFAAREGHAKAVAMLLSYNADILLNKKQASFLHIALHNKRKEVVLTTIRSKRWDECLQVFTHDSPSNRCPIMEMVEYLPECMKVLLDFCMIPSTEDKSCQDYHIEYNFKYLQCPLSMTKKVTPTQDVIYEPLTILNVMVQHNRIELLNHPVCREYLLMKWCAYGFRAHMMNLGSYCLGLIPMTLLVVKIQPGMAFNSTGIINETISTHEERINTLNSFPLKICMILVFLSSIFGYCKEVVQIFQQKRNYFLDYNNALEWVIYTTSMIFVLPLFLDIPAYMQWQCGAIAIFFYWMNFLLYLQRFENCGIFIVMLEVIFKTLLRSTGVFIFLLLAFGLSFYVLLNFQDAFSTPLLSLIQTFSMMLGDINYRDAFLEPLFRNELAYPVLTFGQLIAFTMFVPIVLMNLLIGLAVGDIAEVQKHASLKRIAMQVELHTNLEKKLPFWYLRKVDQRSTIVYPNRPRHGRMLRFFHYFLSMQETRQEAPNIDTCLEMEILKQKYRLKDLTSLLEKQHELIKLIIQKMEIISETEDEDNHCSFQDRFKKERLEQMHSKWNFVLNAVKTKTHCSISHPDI

- IC50 (mouse TRPA1): 4.5 µM
- block of rat TRPA1 (rat TRPA1): blocked
- block of TRPV1 (TRPV1): did not block
- block of TRPV3 (TRPV3): did not block
- IC50 (TRPA1 [8]): 3.1 µM
- block of cinnamaldehyde-induced TRPA1 currents in excised patches (TRPA1 [9]): suppressed; also recorded: blocked
Structure (SMILES): CC(=Cc1ccc(Cl)cc1)C(C)=NO [Compound 18, (Z)-4-(4-chlorophynyl)-3-methylbut-3-en-2-oxime]
- cinnamaldehyde-induced nociceptive events (time spent licking and flicking hindpaw, 5 min) [1]: suppresses; also recorded: significantly blocked
- nociceptive responses to acute heat to the paw [2]: not affected
- nociceptive responses to acute pressure to the paw [2]: not affected
- CFA-induced mechanical hyperalgesia [3]: reverses; also recorded: relieved
- CFA-induced heat hyperalgesia [4]: not thermal (heat) behaviours; also recorded: did not block
- BK-induced heat hyperalgesia [5]: not thermal (heat) behaviours; also recorded: did not block
- effect on activation or activities of the other thermoTRPs [6]: little or no effect
- inhibition of TRPA1 activation or function (TRPA1 [7]): specifically inhibit TRPA1 activation or function
